Data taken from patent EP4725957A1, “GROUP OF CYCLIC ALKALINE LIPOPEPTIDE COMPOUNDS, AND PREPARATION METHOD THEREFOR AND USE THEREOF” (Institute of Medicinal Biotechnology, Chinese Academy of …, priority 2023, dated 2024).
Values after ≈ are worked out from the molar mass of the structure shown. Bridge positions count the residues as written; N and C are the ends. Square brackets hold non-standard residues; d marks the D form. Peptide text beside a SMILES is read from it. * marks the point of attachment. Heptanoyl(6-Me) = CC(C)CCCCC(=O)*; Sulfomethyl = O=S(=O)(O)C*; Nonanoyl = CCCCCCCCC(=O)*; dDab = NCC[C@@H](N)C(=O)O; Heptanoyl = CCCCCCC(=O)*; Octanoyl = CCCCCCCC(=O)*; Orn = NCCC[C@H](N)C(=O)O; Dab = NCC[C@H](N)C(=O)O; Dap = NC[C@H](N)C(=O)O

Tests used:
Assay type in all cases: cell-based
[1] = system: Acinetobacter baumannii NCTC 13304 (OXA-27); details: NCTC 13304
Summary of the method: (§1)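 Broth microdilution MIC per CLSI in MH broth, compounds 2-fold diluted to final 64–0.03 mg/L. Inoculum (2-4) × 10^5 CFU/mL final, from 0.5 McFarland suspensions of 18-24 h colonies. Plates sealed and incubated 35-37°C for 16-20 h.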

[2] = system: Escherichia coli ATCC BAA-2340 (KPC); details: ATCC BAA-2340
Summary of the method: as §1

[3] = system: Acinetobacter baumannii ABA19-1; details: ABA19-1
Summary of the method: as §1

[4] = system: Klebsiella pneumoniae KPN+19-15; details: KPN+19-15
Summary of the method: as §1

[5] = system: Pseudomonas aeruginosa PAE19-3; details: PAE19-3
Summary of the method: as §1

[6] = system: Pseudomonas aeruginosa ATCC 27853; details: ATCC 27853
Summary of the method: as §1

[7] = system: Escherichia coli ATCC BAA-2523; details: ATCC BAA-2523
Summary of the method: as §1

[8] = system: Klebsiella pneumoniae ATCC BAA-1705 (KPC); details: ATCC BAA-1705
Summary of the method: as §1

[9] = Nephrotoxicity assay: in vitro cytotoxicity of HK-2 cells by CCK-8 assay; details: human, HK-2 cells (human renal), 72 h incubation with drug-containing medium
Summary of the method: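 HK-2 human renal cells in RPMI-1640 with 10% FBS were exposed to compounds at final 12.5–500 µg/mL for 72 h, then CCK-8 for 3 h and OD450 read. Viability was normalised to drug-free wells; IC50 came from logarithmic regression over three repeats, with polymyxin B as positive drug.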

SMILES: CC(C)CCCCC(=O)N[C@@H](CCN)C(=O)N[C@H](C(=O)N[C@@H](CN)C(=O)N[C@H]1CCNC(=O)[C@H]([C@@H](C)OCS(=O)(=O)O)NC(=O)[C@H](CCN)NC(=O)[C@H](CCN)NC(=O)[C@H]([C@@H](C)O)NC(=O)[C@@H](Cc2ccccc2)NC(=O)[C@H](CCN)NC1=O)[C@@H](C)O [Compound 115, 6-methylheptanoyl-Dab-Thr-Dap-ring(4-10)[Dab-Dab-D-Phe-Thr-Dab-Dab-Thr(CH2SO3H)]] ({Heptanoyl(6-Me)}-[Dab]T[Dap][Dab][Dab][dF]T[Dab][Dab]T(Sulfomethyl); lactam 4-C)
- MIC [1]: 0.06 µg/mL (≈ 0.0477 µM)
- MIC [2]: 0.03 µg/mL (≈ 0.0239 µM)
- MIC [3]: 0.06 µg/mL (≈ 0.0477 µM)
- MIC [4]: 0.125 µg/mL (≈ 0.0994 µM)
- MIC [5]: 0.25 µg/mL (≈ 0.199 µM)
- MIC [6]: 0.25 µg/mL (≈ 0.199 µM)
- MIC [7]: 0.03 µg/mL (≈ 0.0239 µM)
- MIC [8]: 0.125 µg/mL (≈ 0.0994 µM)
- IC50 at 72 h [9]: > 500 µg/mL

SMILES: CCCCCCCC(=O)N[C@@H](CCN)C(=O)N[C@H](C(=O)N[C@H](CO)C(=O)N[C@H]1CCNC(=O)[C@H]([C@@H](C)O)NC(=O)[C@H](CCN)NC(=O)[C@H](CCN)NC(=O)[C@H]([C@@H](C)O)NC(=O)[C@@H](Cc2ccccc2)NC(=O)[C@H](CN)NC1=O)[C@@H](C)O [Compound 63, Octanoyl-Dab-Thr-D-Ser-ring(4-10)[Dab-Dap-D-Phe-Thr-Dab-Dab-Thr]] (Octanoyl-[Dab]T[dS][Dab][Dap][dF]T[Dab][Dab]T; lactam 4-C)
- MIC [1]: 0.25 µg/mL (≈ 0.217 µM)
- MIC [2]: 0.125 µg/mL (≈ 0.109 µM)
- MIC [3]: 0.25 µg/mL (≈ 0.217 µM)
- MIC [4]: 0.5 µg/mL (≈ 0.435 µM)
- MIC [5]: 4 µg/mL (≈ 3.48 µM)
- MIC [6]: 64 µg/mL (≈ 55.6 µM)
- MIC [7]: 0.125 µg/mL (≈ 0.109 µM)
- MIC [8]: 0.25 µg/mL (≈ 0.217 µM)
- IC50 at 72 h [9]: > 500 µg/mL

SMILES: CC(C)CCCCC(=O)N[C@@H](CCN)C(=O)N[C@H](C(=O)N[C@H](CO)C(=O)N[C@H]1CCNC(=O)[C@H]([C@@H](C)O)NC(=O)[C@H](CCN)NC(=O)[C@H](CCN)NC(=O)[C@H]([C@@H](C)O)NC(=O)[C@@H](Cc2ccccc2)NC(=O)[C@H](CCCN)NC1=O)[C@@H](C)O [Compound 67, 6-methylheptanoyl-Dab-Thr-D-Ser-ring(4-10)[Dab-Orn-D-Phe-Thr-Dab-Dab-Thr]] ({Heptanoyl(6-Me)}-[Dab]T[dS][Dab][Orn][dF]T[Dab][Dab]T; lactam 4-C)
- MIC [1]: 0.25 µg/mL (≈ 0.212 µM)
- MIC [2]: 0.25 µg/mL (≈ 0.212 µM)
- MIC [3]: 0.25 µg/mL (≈ 0.212 µM)
- MIC [4]: 0.5 µg/mL (≈ 0.424 µM)
- MIC [5]: 4 µg/mL (≈ 3.39 µM)
- MIC [6]: 64 µg/mL (≈ 54.3 µM)
- MIC [7]: 0.25 µg/mL (≈ 0.212 µM)
- MIC [8]: 0.25 µg/mL (≈ 0.212 µM)
- IC50 at 72 h [9]: > 500 µg/mL

SMILES: CCCCCCCCC(=O)N[C@@H](CCN)C(=O)N[C@H](C(=O)N[C@@H](CN)C(=O)N[C@H]1CCNC(=O)[C@H]([C@@H](C)O)NC(=O)[C@H](CCN)NC(=O)[C@H](CCN)NC(=O)[C@H](CC(C)C)NC(=O)[C@@H](Cc2ccccc2)NC(=O)[C@H](CCN)NC1=O)[C@@H](C)O [Compound 40, Nonanoyl-Dab-Thr-Dap-ring(4-10)[Dab-Dab-D-Phe-Leu-Dab-Dab-Thr]] (Nonanoyl-[Dab]T[Dap][Dab][Dab][dF]L[Dab][Dab]T; lactam 4-C)
- MIC [1]: 0.06 µg/mL (≈ 0.0504 µM)
- MIC [2]: 0.06 µg/mL (≈ 0.0504 µM)
- MIC [3]: 0.06 µg/mL (≈ 0.0504 µM)
- MIC [4]: 0.06 µg/mL (≈ 0.0504 µM)
- MIC [5]: 0.5 µg/mL (≈ 0.42 µM)
- MIC [6]: 0.06 µg/mL (≈ 0.0504 µM)
- MIC [7]: 0.06 µg/mL (≈ 0.0504 µM)
- MIC [8]: 0.06 µg/mL (≈ 0.0504 µM)
- IC50 at 72 h [9]: 158 ± 6.4 µg/mL (≈ 133 µM)

SMILES: CCCCCCC(=O)N[C@@H](CCN)C(=O)N[C@H](C(=O)N[C@H](CCN)C(=O)N[C@H]1CCNC(=O)[C@H]([C@@H](C)O)NC(=O)[C@H](CCN)NC(=O)[C@H](CCN)NC(=O)[C@H]([C@@H](C)O)NC(=O)[C@@H](Cc2ccccc2)NC(=O)[C@H](CCN)NC1=O)[C@@H](C)O [Compound 14, Heptanoyl-Dab-Thr-D-Dab-ring(4-10)[Dab-Dab-D-Phe-Thr-Dab-Dab-Thr]] (Heptanoyl-[Dab]T[dDab][Dab][Dab][dF]T[Dab][Dab]T; lactam 4-C)
- MIC [1]: 0.03 µg/mL (≈ 0.0258 µM)
- MIC [2]: 0.03 µg/mL (≈ 0.0258 µM)
- MIC [3]: 0.03 µg/mL (≈ 0.0258 µM)
- MIC [4]: 0.03 µg/mL (≈ 0.0258 µM)
- MIC [5]: 2 µg/mL (≈ 1.72 µM)
- MIC [6]: 2 µg/mL (≈ 1.72 µM)
- MIC [7]: 0.03 µg/mL (≈ 0.0258 µM)
- MIC [8]: 0.06 µg/mL (≈ 0.0516 µM)
- IC50 at 72 h [9]: > 500 µg/mL
